Test results: patent US12336987B2, “Quinoline amides and methods of using same” (YALE UNIVERSITY, priority 2015, dated 2025)
Where no end group is shown, it is not given here.

How the values were obtained:
[1] = tested on: Src and its homologue, Abl; settings: background statement; cited from earlier work
IAPP20-29 = biological target: T1, IAPP20-29 (Homo sapiens, UniProt P10997); assay: Amyloid assembly kinetics of the 10-residue peptide IAPP20-29; assay type: biochemical; settings: 200 μM IAPP20-29
T1 construct: the 10-residue sub-peptide, IAPP20-29
Method: Amyloid reactions were conducted in buffer containing liposome (630 μM lipid) and 20 μM ThT in a black 96-well plate. This was followed by addition of small molecule dissolved in DMSO (final DMSO concentration=0.5%, v/v). Fibre formation was initiated by addition of IAPP stock solution. The final volume in each well was 200 μL. Kinetics of fibrillation was monitored by ThT fluorescence (Ex 450 nm and Em 485 nm) using a FluoDia T70 fluorescence plate reader (Photon Technology International, Edison, NJ, USA). The data were blank subtracted and renormalized to the maximum intensity of reactions containing only IAPP. Each kinetic trace was fit to a sigmoidal form:
[formula] where I is the fluorescence intensity, t is time, and b, m, and r are dependent fitting variables. All samples were run at least in triplicate and error bars shown in the text represent ±one standard deviation. Transmission Electron Microscopy

INS-1 cells = assay: Cell viability (Cell-Titer Blue), IAPP induced toxicity and rescue; assay type: cell-based, rat; settings: 13 μM IAPP; for rescue of IAPP induced toxicity, co-addition: 1:1 IAPP:ligand co-added, 48 h
Method: Rat insulinoma INS-1 cells (832/13, Dr. Gary W. Cline, Department of Internal Medicine, Yale University) were cultured at 37° C. and 5% CO2 in phenol red free RPMI 1640 media supplemented with 10% fetal bovine serum, 1% penicillin/streptomycin (Life Technologies, Carlsbad, CA, USA), and 2% INS-1 stock solution (500 mM HEPES, 100 mM L-glutamine, 100 mM sodium pyruvate, and 2.5 mM β-mercaptoethanol). Cells were passaged upon reaching ˜95% confluence (0.25% Trypsin-EDTA, Life Technologies), propagated, and/or used in experiments. Cells used in experiments were pelleted and resuspended in fresh media with no Trypsin-EDTA.
Cell viability was measured colourimetrically using the Cell-Titer Blue (CTB, Promega, Madison, WI, USA) fluorescence-based assay. Cells were plated at a density 5000 cells/well in 96-well plates (BD Biosciences, San Diego, CA). Peptide was directly introduced to each well after 48 h of culture and then further incubated for an additional 48 h. For time dependent experiments, cells were incubated with peptide for the specified time points. After the incubation period, 20 μL CTB reagent was added to each well and incubated at 37° C. and 5% CO2 for 2.5-3.5 h. Fluorescence of the resorufin product was measured on a FluoDia T70 fluorescence plate reader (Photon Technology International, Birmingham, NJ, USA). All wells included the same amount of water to account for different concentrations of peptide added to sample wells. Wells that included water vehicle but not peptide served as the negative control (0% toxic), and wells containing 10% DMSO were the positive control (100% toxic). Percent toxicity was calculated using the following equation: […]
Each independent variable is the average of eight plate replicates from the negative control (<N>), positive control (<P>), and samples (<S>). Results presented for viability experiments are an average of three such experiments conducted independently on different days. Error bars represent the standard error of the mean.

IAPP = biological target: T2, IAPP (Homo sapiens, UniProt P10997); assay: Kinetic assay of IAPP fibre formation (ThT fluorescence), in solution or catalysed by LUVs; assay type: biochemical; settings: 10 μM IAPP, 630 μM LUVs, IAPP:small molecule 1:1
T2 construct: purchased Genscript; Elim Biopharmaceuticals
T2 sequence (P10997 34-70 limits assumed): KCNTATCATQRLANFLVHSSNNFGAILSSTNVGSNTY
Method: Unless otherwise stated, LUVs used in this work were prepared from a 1:1 mixture of DOPG/DOPC. The lyophilized mixture was hydrated in 100 mM KCl, 50 mM sodium phosphate, and pH 7.4 for 20 minutes. A 20 mg/mL solution of lipid in buffer was passed 21 times through a polycarbonate membrane (pore diameter=100 nm).
Amyloid reactions were conducted in buffer containing liposome (630 μM lipid) and 20 μM ThT in a black 96-well plate. This was followed by addition of small molecule dissolved in DMSO (final DMSO concentration=0.5%, v/v). […] The final volume in each well was 200 μL. Kinetics of fibrillation was monitored by ThT fluorescence (Ex 450 nm and Em 485 nm) using a FluoDia T70 fluorescence plate reader (Photon Technology International, Edison, NJ, USA). […] Each kinetic trace was fit to a sigmoidal form:

| Molecule | rescue of IAPP induced toxicity, co-addition (INS-1 cells) | effect on liposome catalysed fibrillation (IAPP) | also measured |
| --- | --- | --- | --- |
| Cc1ccc(NC(=O)c2ccc(CN3CCN(C)CC3)cc2)cc1Nc1nccc(-c2cccnc2)n1 [Gleevec] |  |  | difference in binding affinity between Src and Abl [1]: > 1,000 fold |
| IAPP20-29: 10-residue sub-peptide of IAPP, residues 20-29 (SNNFGAILSS; Islet amyloid polypeptide; UniProt P10997 53-62, looked up, fragment) |  |  | t50 of amyloid formation (IAPP20-29): 6.6 ± 0.3 h |
| Oc1ccc(C=Cc2cc(O)cc(O)c2)cc1 [resveratrol] | ineffective in rescuing toxicity | no detectable effect |  |
| O=C(O[C@@H]1Cc2c(O)cc(O)cc2O[C@@H]1c1cc(O)c(O)c(O)c1)c1cc(O)c(O)c(O)c1 [EGCG] | ineffective in rescuing toxicity | no detectable effect |  |
| acid fuchsin | ineffective in rescuing toxicity | no detectable effect |  |
| IAPP: 37-residue, C-terminally amidated human islet amyloid polypeptide (SEQ ID NO:1) (KCNTATCATQRLANFLVHSSNNFGAILSSTNVGSNTY-NH2; cysteine pairing not given here) |  |  | decrease of INS-1 viability (INS-1 cells; 48 h incubation): 78±8% |
| COC(=O)c1cc(OCC(=O)O)c2cccc(NC(=O)c3cc(OCC(=O)O)c4cccc(NC(=O)c5cc(OCC(=O)O)c6cccc(NC(=O)c7cc(OCC(=O)O)c8cccc(NC(=O)c9cc(OCC(=O)O)c%10cccc([N+](=O)[O-])c%10n9)c8n7)c6n5)c4n3)c2c1 [ADM-118] |  |  | inhibition of liposome catalysed fibrillation, t50 relative to control (IAPP): 3.3±0.1 fold |
